The source of these data is patent US10981911B2, “Imidazopyrrolopyridine as inhibitors of the JAK family of kinases” (Janssen Pharmaceutica NV, priority 2016, dated 2021).

Data set [1] is described as follows: Solubility assays in simulated gastric and simulated intestinal fluids. It counts as physicochemical. Conditions: thermodynamic from solid, 2-5 days. As to the method: Test compounds were dissolved in DMSO at a concentration of 10 mM. The test compounds were dispensed (20 μL) into Nunc 1-mL-96-Deep-Well-PP plates, and the DMSO was evaporated via nitrogen blow down from a TurboVap 96 for 6 hours or until a dry residue was produced. Then, 400 μL of solubility media was added to the well containing the dry solid. […] After the incubation period, the samples were filtered through an AcroPrep 1-mL-96-Filter plate into a new 2-mL-96-Deep-Well-PP plate, and the supernatants were quantified by UV-HPLC using a 3-point calibration ranging from 0.004-0.55 mM. The solubility for each compound was calculated from the following equation: […] Solubilities are reported as long as the compound under study was sufficiently stable to complete the corresponding solubility determination.

Data set [2] concerns GM-CSF pSTAT5 (JAK2/JAK2). In words: GM-CSF pSTAT5 (JAK2/JAK2) cellular assay (AlphaLISA, PBMCs). In kind it is cell-based. As to conditions: PBMC, GM-CSF at 11 pg/mL. As for the experimental part:
The AlphaLISA assay (based on Alpha Technology from PerkinElmer) was performed by first plating freshly thawed PBMCs (Biological Specialty Corporation) in 384-well plates at 30,000 cells per 4 µL per well in HBSS containing 0.1% IgG-free, protease-free BSA (Jackson ImmunoResearch Cat. No. 001-000-161). The cells were then treated with 2 μL/well of compounds diluted in DMSO at half-log titrated concentrations, with a highest test concentration of […] and 0.5% final DMSO concentration, for thirty minutes at 37° C. Next, the cells were stimulated with 2 μL/well of GM-CSF (R&D Systems Cat. No. 215-GM-050) at 11 pg/mL for fifteen minutes at 37° C. The cellular reactions were terminated by the addition of 2 µL/well of lysis buffer (PerkinElmer Cat. No. ALSU-PST5-A10K) followed by an incubation of five minutes at room temperature. 5 μL/well of acceptor mix (PerkinElmer Cat. No. ALSU-PST5-A10K) was added to the cells and incubated in the dark for one hour at room temperature. Then, 5 μL/well of donor mix (PerkinElmer Cat. No. ALSU-PST5-A10K) was added to the cells and incubated in the dark overnight at room temperature. Finally, the plates were read on a PerkinElmer EnVision for detection of the time-resolved fluorescence signal. The percentage of GM-CSF-dependent pSTAT5 inhibition was determined at the compound test concentrations; and for each compound, a dose curve was generated and the IC50 was calculated. Compound IC50 was calculated by nonlinear regression, sigmoidal dose response analysis of the half-log dilution titration curve of the compound concentration vs. Alpha signal. The term “Alpha” is defined in the IL-2 pSTAT5 (JAK1/JAK3) cellular assay description.
For orientation: Bead proximity is the source of the signal in Alpha formats.

Another data set deals with P-gp (MDR1). In words: MDCK-MDR1 permeability assay. It counts as in vitro ADME. As to conditions: dog; for Papp A→B at 60 min, 5 μM / Papp B→A at 60 min, 5 μM: MDCK-MDR1, pH 7.4, @ 5 μM; for Papp A→B at 60 min, 5 μM: apical to basolateral, without P-gp inhibitor; for Papp B→A at 60 min, 5 μM: basolateral to apical; for efflux ratio at 60 min, 5 μM: MDCK-MDR1, pH 7.4, MDCK-MDR1, 5 μM, read-out: Papp(B-A)/Papp(A-B) (efflux ratio). As for the experimental part:
Permeability measurements were conducted according to the Cyprotex protocol using the MDCK-MDR1 cell line obtained from the NIH (Rockville, Md., USA). Cells between passage numbers 6-30 were seeded onto a Multiscreen Plate™ (Millipore) at a cell density of 3.4×10^5 cells/cm^2 and cultured for three days before permeability studies were conducted. The cells in this assay form a cohesive sheet of a single cell layer filing the surface area of the culture dish, also known as a confluent monolayer, and on day four the test compound was added to the apical side of the membrane and the transport of the compound across the monolayer was monitored over a time period of 60 min.
Test compounds were dissolved in DMSO at a concentration of 10 mM. The dosing solutions were prepared by diluting test compound with assay buffer (Hanks Balanced Salt Solution), pH 7.4, at a final concentration of 5 μM. For assessment of apical to basolateral (“A-B”) permeability, buffer was removed from the apical compartment and replaced with test compound dosing solution with or without the permeability glycoprotein (“PgP”, “P-gP”, “Pgp” or “P-gp”) inhibitor elacridar (2 μM). For assessment of basolateral to apical (“B-A”) permeability, buffer was removed from the companion plate and replaced with test compound dosing solution. Incubations were carried out in duplicate at 37° C. in an atmosphere of 5% CO2 with a relative humidity of 95%. Each assay included the reference markers propranolol (high permeability) and prazosin (PgP substrate). After incubation for 60 minutes, apical and basolateral samples were diluted and test compounds quantified by LC/MS/MS using an 8-point calibration in the range 0.0039 to 3 μM with appropriate dilution of the samples (receiver dilution factor=1; donor and C0 dilution factor=10). The permeability coefficient (Papp) for each compound was calculated from the following equation: Papp=(dQ/dt)/(C0×S), where dQ/dt is the rate of permeation of the drug across the cells, C0 is the donor compartment concentration at time zero, and S is the area of the cell monolayer.
The second and third columns in Table 7 show the values of Papp(A-B) for the apical-to-basolateral compound transport without (second column) and with a P-gp inhibitor (third column, noted as P^eapp(A-B)) that was elacridar. Papp(A-B) gives an indication of permeation extent across the cells in this assay, which is envisaged to model the transcellular transport across Pgp-expressing cells, such as Pgp-expressing gastrointestinal tract cells. P^eapp(A-B) values (Papp(A-B) in the presence of the P-gp inhibitor) given in column 3 are determined to confirm the role of P-gp in the compound efflux. […] Test compound efflux ratios are given in the fifth column of Table 7 as Papp(B-A)/Papp(A-B) by using the corresponding permeability coefficient values from the fourth and second columns in the same table.

Setting [3] is: fassif, simulated intestinal fluid, fasted state pH 6.5, ambient temperature, read-out: SIF solubility.
Setting [4] is: simulated gastric fluid, ambient temperature, read-out: SGF solubility.

pIC50: −log10 of the molar value. Read-outs that look alike come from different tables or passages of the source. Some results are limits rather than exact numbers.

For `N#CCCNC(=O)Cc1nc2cnc3[nH]ccc3c2n1[C@H]1CC[C@H](CC#N)CC1` [Ex. 4, N-(2-Cyanoethyl)-2-(1-((1r,4r)-4-(cyanomethyl)cyclohexyl)-1,6-dihydroimidazo[4,5-d]pyrrolo[2,3-b]pyridin-2-yl)acetamide], the solubility – broadly, how much of the substance goes into solution per volume – in data set [1] (setting [3]) is over 400 µM. Moreover, in data set [1] (setting [4]), the solubility is over 400 µM. The pIC50 (in general, −log10 of the IC50, conventionally taken in molar units) in data set [2] was 6.92. Moreover, in the data set on P-gp (MDR1), the apparent permeability from apical to basolateral (Papp A→B) (as a rule, how fast a substance crosses the layer from the apical side) at 60 min, 5 μM amounted to 0.1 ×10⁻⁶ cm/s; the Papp B→A (usually the apparent permeability from the basolateral to the apical side of a cell layer) at 60 min, 5 μM stood at 1.3 ×10⁻⁶ cm/s; the efflux ratio at 60 min, 5 μM was found to be 8.7.
Turning to `N#CC[C@H]1CC[C@H](n2c(CC(=O)NCC3(O)CC3)nc3cnc4[nH]ccc4c32)CC1` [Ex. 85, 2-(1-((1r,4r)-4-(Cyanomethyl)cyclohexyl)-1,6-dihydroimidazo[4,5-d]pyrrolo[2,3-b]pyridin-2-yl)-N-((1-hydroxycyclopropyl)methyl)acetamide], in data set [1] (setting [3]), the solubility was over 400 µM. Also, the solubility in data set [1] (setting [4]) was over 400 µM. Further, the pIC50 in data set [2] is 7.12. In addition, in the data set with P-gp (MDR1), the apparent permeability from apical to basolateral (Papp A→B) at 60 min, 5 μM is under 0.5 ×10⁻⁶ cm/s; the Papp B→A at 60 min, 5 μM came out at 1.1 ×10⁻⁶ cm/s; the efflux ratio at 60 min, 5 μM was over 2.2.
Turning to `N#CC[C@H]1CC[C@H](n2c(CC(=O)NCC3CC3)nc3cnc4[nH]ccc4c32)CC1` [Ex. 3, 2-(1-((1r,4r)-4-(Cyanomethyl)cyclohexyl)-1,6-dihydroimidazo[4,5-d]pyrrolo[2,3-b]pyridin-2-yl)-N-(cyclopropylmethyl)acetamide], in data set [1] (setting [3]), the solubility was over 400 µM. In addition, the solubility in data set [1] (setting [4]) was over 400 µM. Further, in data set [2], the negative logarithm of the IC50 (pIC50) is 7.66. In the data set with P-gp (MDR1), the Papp A→B at 60 min, 5 μM is under 0.4 ×10⁻⁶ cm/s; the Papp B→A at 60 min, 5 μM was found to be 17 ×10⁻⁶ cm/s; the efflux ratio at 60 min, 5 μM was over 41.
For the compound `CC(C)(C#N)CNC(=O)Cc1nc2cnc3[nH]ccc3c2n1[C@H]1CC[C@H](CC#N)CC1` [Ex. 22, N-(2-Cyano-2-methylpropyl)-2-(1-((1r,4r)-4-(cyanomethyl)cyclohexyl)-1,6-dihydroimidazo[4,5-d]pyrrolo[2,3-b]pyridin-2-yl)acetamide], the solubility in data set [1] (setting [4]) was over 400 µM. The pIC50 in data set [2] was 7.17. Also, in the data set on P-gp (MDR1), the apical-to-basolateral permeability (Papp A→B) at 60 min, 5 μM was under 0.4 ×10⁻⁶ cm/s; the basolateral-to-apical permeability (Papp B→A) at 60 min, 5 μM was 3.6 ×10⁻⁶ cm/s; the efflux ratio at 60 min, 5 μM is over 9.
The like results for `N#CC[C@H]1CC[C@H](n2c(CC(=O)NC3CCOCC3)nc3cnc4[nH]ccc4c32)CC1` [Ex. 5, 2-(1-((1r,4r)-4-(Cyanomethyl)cyclohexyl)-1,6-dihydroimidazo[4,5-d]pyrrolo[2,3-b]pyridin-2-yl)-N-(tetrahydro-2H-pyran-4-yl)acetamide] were, in that order, over 400 µM, 7.54, under 0.4 ×10⁻⁶ cm/s, 1.8 ×10⁻⁶ cm/s and over 4.8.
Turning to `N#CCC12CCC(NC(=O)Cc3nc4cnc5[nH]ccc5c4n3[C@H]3CC[C@H](CC#N)CC3)(CC1)C2` [Ex. 55, N-(4-(Cyanomethyl)bicyclo[2.2.1]heptan-1-yl)-2-(1-((1r,4r)-4-(cyanomethyl)cyclohexyl)-1,6-dihydroimidazo[4,5-d]pyrrolo[2,3-b]pyridin-2-yl)acetamide], the solubility in data set [1] (setting [4]) is over 400 µM. The negative-log IC50 (pIC50) in data set [2] is 7.35. In addition, in the data set on P-gp (MDR1), the Papp A→B at 60 min, 5 μM was under 0.4 ×10⁻⁶ cm/s; the apparent permeability from basolateral to apical (Papp B→A) at 60 min, 5 μM was 7.1 ×10⁻⁶ cm/s; the efflux ratio at 60 min, 5 μM was over 16.9.
In the case of `N#CCC1CCC(n2c(-c3c[nH]cn3)nc3cnc4[nH]ccc4c32)CC1` (stereo not shown) [Ex. 2, 2-((1r,4r)-4-(2-(1H-Imidazol-4-yl)imidazo[4,5-d]pyrrolo[2,3-b]pyridin-1(6H)-yl)cyclohexyl)acetonitrile], in data set [1] (setting [3]), the solubility was over 400 µM. For the same compound, the solubility in data set [1] (setting [4]) is over 400 µM. Besides, the negative logarithm of the IC50 (pIC50) in data set [2] is 7.21. Also, in the data set with P-gp (MDR1), the Papp A→B at 60 min, 5 μM was found to be 1.1 ×10⁻⁶ cm/s; the Papp B→A at 60 min, 5 μM is 4.8 ×10⁻⁶ cm/s; the efflux ratio at 60 min, 5 μM was found to be 4.4.
As for `CC(C)(O)CNC(=O)Cc1nc2cnc3[nH]ccc3c2n1[C@H]1CC[C@H](CC#N)CC1` [Ex. 1, 2-(1-((1r,4r)-4-(Cyanomethyl)cyclohexyl)-1,6-dihydroimidazo[4,5-d]pyrrolo[2,3-b]pyridin-2-yl)-N-(2-hydroxy-2-methylpropyl)acetamide], the solubility in data set [1] (setting [4]) was over 400 µM. Moreover, in the data set on P-gp (MDR1), the Papp A→B at 60 min, 5 μM was under 0.5 ×10⁻⁶ cm/s; the Papp B→A at 60 min, 5 μM was 0.9 ×10⁻⁶ cm/s; the efflux ratio at 60 min, 5 μM was over 1.9.
Take `N#CC[C@H]1CC[C@H](n2c(CC(=O)NCC3(O)CCC3)nc3cnc4[nH]ccc4c32)CC1` [Ex. 34, 2-(1-((1r,4r)-4-(Cyanomethyl)cyclohexyl)-1,6-dihydroimidazo[4,5-d]pyrrolo[2,3-b]pyridin-2-yl)-N-((1-hydroxycyclobutyl)methyl)acetamide]: in data set [1] (setting [3]), the solubility is over 400 µM. Also, the solubility in data set [1] (setting [4]) is over 400 µM. Besides, the pIC50 in data set [2] is 7.47. For the same compound, in the data set with P-gp (MDR1), the apical-to-basolateral permeability (Papp A→B) at 60 min, 5 μM turned out to be 0.1 ×10⁻⁶ cm/s; the basolateral-to-apical permeability (Papp B→A) at 60 min, 5 μM worked out at 1.7 ×10⁻⁶ cm/s; the efflux ratio at 60 min, 5 μM stood at 11.5.
`N#CC[C@H]1CC[C@H](n2c(CC(=O)NCC3CCOCC3)nc3cnc4[nH]ccc4c32)CC1` [Ex. 10, 2-(1-((1r,4r)-4-(Cyanomethyl)cyclohexyl)-1,6-dihydroimidazo[4,5-d]pyrrolo[2,3-b]pyridin-2-yl)-N-((tetrahydro-2H-pyran-4-yl)methyl)acetamide]: the solubility in data set [1] (setting [3]) was over 400 µM. The solubility in data set [1] (setting [4]) was over 400 µM. The pIC50 in data set [2] is 7.60. For the same compound, in the data set with P-gp (MDR1), the Papp A→B at 60 min, 5 μM is under 0.3 ×10⁻⁶ cm/s; the Papp B→A at 60 min, 5 μM turned out to be 2.5 ×10⁻⁶ cm/s; the efflux ratio at 60 min, 5 μM is over 8.4.
